Tested on: male Balb/c mice
Experiment: TNBS-induced experimental colitis in mice, lesion length of the colon
Format: in vivo
Conditions: for improvement of colitis compared with combination administration, in words: single administration at a dose higher than that in the combination administration
Procedure: A total of 0.08 ml of a 1:1 (v/v) mixture of 10% picrylsulfonic acid (TNBS) solution and ethanol was administered to anesthetized male Balb/c mice (Charles River Japan, Inc., Yokohama, Japan) according to previous reports (J Exp Med 2001; 193: p 827-38, J Exp Med 2001; 193: p 25-34) to thereby induce experimental colitis. The colon (large intestine) was sampled two days later, and the length of a flare site accompanied with ulcer or hyperplasia near to the lumen was measured and was defined as the lesion length. The inhibition (%) was calculated from the average lesion length of a treated group, compared with the average lesion length of a control group. The test compound suspended in a 0.5% solution of methylcellulose was orally administered to the mice via sonde once a day from two days before the beginning of colitis induction.

## CC(C)O[C@@H](Cc1cccc(CNC(=O)OCc2cccc(OC(F)(F)F)c2)c1)C(=O)O [Compound 1, 3-(3-{[3-trifluoromethoxybenzyloxycarbonylamino]methyl}phenyl)-2(S)-isopropoxypropanoic acid]
Compound 1 0.3 mg/kg/day, oral, once a day
  Inhibition (%) of average lesion length: 8%
Compound 1 1 mg/kg/day, oral, once a day
  Inhibition (%) of average lesion length: 21%
Compound 1 3 mg/kg/day, oral, once a day (Table 2)
  Inhibition (%) of average lesion length: 38%
Compound 1 10 mg/kg/day, oral, once a day
  Inhibition (%) of average lesion length: 34%
Table 5: Compound 1 3 mg/kg/day alone
  Inhibiton (%) of average lesion length: 29%
Single administration
  improvement of colitis, in words: partially improves colitis
  improvement of colitis compared with combination administration, in words: improves colitis less effectively

## CN(CCOc1ccc(CC2SC(=O)NC2=O)cc1)c1ccccn1 (centres unmarked) [Rosiglitazone, rosiglitazone]
Rosiglitazone 1 mg/kg/day, oral, once a day, single administration
  Inhibition (%) of average lesion length: 23%
Rosiglitazone 10 mg/kg/day, oral, once a day, single administration
  Inhibition (%) of average lesion length: 37%

## O=C(O)c1cc(N=Nc2ccc(S(=O)(=O)Nc3ccccn3)cc2)ccc1O [Sulfasalazine, 2-hydroxy-5-[[4-[(2-pyridinylamino)sulfonyl]phenyl]-azo]benzoic acid]
Sulfasalazine 100 mg/kg/day, oral, single administration (Table 3)
  Inhibiton (%) of average lesion length: 40%
Sulfasalazine 300 mg/kg/day, oral, single administration
  Inhibiton (%) of average lesion length: 35%
Table 5: Sulfasalazine 100 mg/kg/day alone
  Inhibiton (%) of average lesion length: 43%
Single administration
  improvement of colitis, in words: partially improves colitis
  improvement of colitis compared with combination administration, in words: improves colitis less effectively

— US20060177444A1, “Concomitant drug as therapeutic agent for inflammatory bowel disease” (priority 2003, published 2006)
